Experimental findings from patent US20240309015A1, “Methods for the Treatment of Fibrotic Disease” (SHY Therapeutics, LLC, priority 2021, published 2024) are described below.

The subject of one test is IL-6. The test is described as follows: Mouse IL6 Quantification Assay (LPS-stimulated RAW 264.7). Also noted: dose or concentration left out as unconfirmed. Particulars: RAW264.7, ELISA, read-out: IL-6: % inh. It counts as cell-based. Background: ELISA stands for enzyme-linked immunosorbent assay.
A further test has as its system Smad2/3 phosphorylation. Briefly: Phospho-Smad2/3 Inhibition Assay in PANC-1. It counts as cell-based. Particulars: Homo sapiens; 10 μM compound, 3 h; TGF-b1 stimulated PANC-1; western blot; read-out: % inh of Smad2/3 phosphorylation in PANC-1. As for the experimental part: Cell lines: Human tumor-derived pancreatic cancer cell line Panc-1 and mouse muscle myoblast C2C12 were purchased from American Type Culture Collection and grown in complete DMEM-High Glucose, supplemented with penicillin (100 U/mL), streptomycin (100 μg/mL), and 10% heat-inactivated FBS at 37° C. in a humidified incubator with 5% CO2.
Method: Cells were plated at 350000 cells/well density in a 12-well plate, allowed 3 hours to adhere to the plate, then starved in the appropriate medium in the presence of 0.5% FBS overnight. The small molecules to be tested were added to the cells in the final concentration of 10 μM in the presence of 0.3% DMSO for 3 hours incubation at 37° C. For IC50 value determination, serial dilutions of compounds were added to cells under the same conditions. Next, Panc-1 cells were stimulated with 10 ng/ml TGF-b1 for 1 hour, and C2C12 cells were stimulated with 10 ng/ml TGF-b1 for 20 minutes (recombinant human TGF-b1, R&D Systems). After stimulation cells were lysed with lysis buffer containing 1% Triton X-100, EDTA, and Halt™ Protease & Phosphatase Inhibitor Cocktail (Thermo Scientific). Protein concentration was assessed by BCA protein assay (Thermo Scientific). Phosphorylation level of Smad2/Smad3 was determined by western blot.
Western blot protocol: Equal amounts of protein (15-50 μg) were separated by SDS-PAGE and transferred to nitrocellulose membranes (Invitrogen by Thermo Fisher Scientific). The membrane was stained with Ponceau S Stain (Boston BioProducts) to verify uniform protein loading. Membranes were blocked with 10% milk and phosphorylation levels of Smad2/Smad3 were assessed by incubating overnight at 4° C. with the following antibodies: Phospho-Smad2 (Ser465/467) and Phosph-Smad3 (Ser423/425), both from Cell Signaling Technology. Then the membranes were incubated with HRP-conjugated secondary antibody (Jackson Immunoresearch, West Grove, PA). Bands were incubated in Amersham ECL Prime Western Blotting Detection Reagent (GE Healthcare) and visualized using the ChemiDoc MP imaging system (Bio-Rad).

A further test concerns Rho-A. The test is described as follows: Ras GTP Binding Domain Inhibition Assay, Rho-A. The settings on record: at 20 μM; without SOS. The method, boiled down:
(§1)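 Compounds were tested at 20 μM final, or as dilution series for IC50, against nickel-plate-captured His-tagged GTPase proteins for 3 h at room temperature. Sos exchange factor could be present for the last hour. Labelled GTP (100 nM Cy3 or Cy5) was then bound for 45 min, wells were washed, and retained fluorescence was measured.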

Another test relates to KRas wild type. Briefly: Ras GTP Binding Domain Inhibition Assay, KRas wild type. The settings on record: at 20 μM; for KRas wild type + SOS: % inh.: with SOS; for KRas wild type: % inh.: without SOS. The method, boiled down:
as §1

The subject of the next test is KRas G12C mutant. The test is described as follows: Ras GTP Binding Domain Inhibition Assay, KRas G12C mutant. Particulars: at 20 μM; for KRas G12C mutant + SOS: % inh.: with SOS; for KRas G12C mutant: % inh.: without SOS. The method, boiled down: as §1
The subject of another test is TNFα. Briefly: Mouse TNF Alpha Quantification Assay (LPS-stimulated RAW 264.7). The test is classed as cell-based. Also noted: dose or concentration left out as unconfirmed. Particulars: RAW264.7, ELISA, read-out: TNFα: % inh.
Another test has as its system KRas G12D mutant. The test is described as follows: Ras GTP Binding Domain Inhibition Assay, KRas G12D mutant. The settings on record: at 20 μM; for KRas G12D mutant + SOS: % inh.: with SOS; for KRas G12D mutant: % inh.: without SOS. The method, boiled down: as §1

The structures appear in SMILES notation.

`COC1CCCN(c2nc(-c3nccn3C)nc3sc(-c4ccn(C(C)C)n4)c(C)c23)C1` (racemic) [Compound 14, rac-6-(1-Isopropyl-1H-pyrazol-3-yl)-4-(3-methoxypiperidin-1-yl)-5-methyl-2-(1-methyl-1H-imidazol-2-yl)thieno[2,3-d]pyrimidine]: in the test on IL-6, the inhibition was in the range of 76 to 100%. For the same compound, the inhibition at 10 µM in the test on Smad2/3 phosphorylation fell in the range of 46 to 75%. For the same compound, in the test on Rho-A, the “Rho-A: % inh.” value is listed as “B (B = 26-45% inhibition)”. For the same compound, in the test on KRas wild type, the “KRas wild type + SOS: % inh.” value was “D (D = 76-100% inhibition)” and the “KRas wild type: % inh.” value is reported as 0 (0 = 0% inhibition). Moreover, in the test on KRas G12C mutant, the “KRas G12C mutant + SOS: % inh.” value is “D (D = 76-100% inhibition)” and the “KRas G12C mutant: % inh.” value is reported as “B (B = 26-45% inhibition)”. Further, in the test on TNFα, the inhibition is 26 to 45%.

Regarding `Cc1c(-c2ccn(C(C)C)n2)sc2nc(-c3nccn3C)nc(NCC3COCCN3C)c12` (racemic) [Compound 24, rac-6-(1-Isopropyl-1H-pyrazol-3-yl)-5-methyl-2-(1-methyl-1H-imidazol-2-yl)-N-((4-methylmorpholin-3-yl)methyl)thieno[2,3-d]pyrimidin-4-amine], the inhibition in the test on IL-6 was 76 to 100%. In addition, in the test on Smad2/3 phosphorylation, the inhibition at 10 µM amounted to 0%. For the same compound, the “Rho-A: % inh.” value with Rho-A is “C (C = 46-75% inhibition)”. In the test on KRas wild type, the “KRas wild type + SOS: % inh.” value is reported as “D (D = 76-100% inhibition)” and the “KRas wild type: % inh.” value is given as “B (B = 26-45% inhibition)”. Further, in the test with KRas G12D mutant (Table 7), the “KRas G12D mutant + SOS: % inh.” value is listed as “D (D = 76-100% inhibition)” and the “KRas G12D mutant: % inh.” value is given as “C (C = 46-75% inhibition)”. In the test with KRas G12D mutant (Table 8), the “KRas G12D mutant + SOS: % inh.” value is on record as “D (D = 76-100% inhibition)” and the “KRas G12D mutant: % inh.” value is “C (C = 46-75% inhibition)”. In the test with KRas G12C mutant, the “KRas G12C mutant + SOS: % inh.” value is listed as “D (D = 76-100% inhibition)” and the “KRas G12C mutant: % inh.” value is reported as “C (C = 46-75% inhibition)”. Moreover, the inhibition in the test with TNFα lay within 1 to 25%.

In the case of `Cc1c(-c2ccn(C(C)C)n2)sc2nc(-c3nccn3C)nc(NCC3CN(C)CCO3)c12` (racemic) [Compound 25, rac-6-(1-Isopropyl-1H-pyrazol-3-yl)-5-methyl-2-(1-methyl-1H-imidazol-2-yl)-N-((4-methylmorpholin-2-yl)methyl)thieno[2,3-d]pyrimidin-4-amine], the inhibition with IL-6 is 76 to 100%. Further, in the test with Smad2/3 phosphorylation, the inhibition at 10 µM came out at 0%. Besides, the “Rho-A: % inh.” value in the test on Rho-A is on record as “D (D = 76-100% inhibition)”. In the test with KRas wild type, the “KRas wild type + SOS: % inh.” value is on record as “D (D = 76-100% inhibition)” and the “KRas wild type: % inh.” value was “D (D = 76-100% inhibition)”. For the same compound, in the test on KRas G12D mutant (Table 7), the “KRas G12D mutant + SOS: % inh.” value is “D (D = 76-100% inhibition)” and the “KRas G12D mutant: % inh.” value was “D (D = 76-100% inhibition)”. In addition, in the test with KRas G12D mutant (Table 8), the “KRas G12D mutant + SOS: % inh.” value was “D (D = 76-100% inhibition)” and the “KRas G12D mutant: % inh.” value is recorded as “D (D = 76-100% inhibition)”. In the test on KRas G12C mutant, the “KRas G12C mutant + SOS: % inh.” value is “D (D = 76-100% inhibition)” and the “KRas G12C mutant: % inh.” value was “D (D = 76-100% inhibition)”. In the test on TNFα, the inhibition fell in the range of 46 to 75%.

With `COc1cc(-c2sc3nc(-c4nccn4C)nc(N[C@H]4C[C@H](OC)C4)c3c2-c2ccccc2)ccn1` [Compound 46, N-((1r,3r)-3-Methoxycyclobutyl)-6-(2-methoxypyridin-4-yl)-2-(1-methyl-1H-imidazol-2-yl)-5-phenylthieno[2,3-d]pyrimidin-4-amine], the inhibition at 10 µM with Smad2/3 phosphorylation is 76 to 100%. In addition, in the test on Rho-A, the “Rho-A: % inh.” value is “C (C = 46-75% inhibition)”. Moreover, in the test with KRas wild type, the “KRas wild type + SOS: % inh.” value is “D (D = 76-100% inhibition)” and the “KRas wild type: % inh.” value is “C (C = 46-75% inhibition)”. Also, in the test with KRas G12D mutant (Table 7), the “KRas G12D mutant + SOS: % inh.” value is on record as “C (C = 46-75% inhibition)” and the “KRas G12D mutant: % inh.” value was “C (C = 46-75% inhibition)”. Besides, in the test with KRas G12D mutant (Table 8), the “KRas G12D mutant + SOS: % inh.” value is recorded as “C (C = 46-75% inhibition)” and the “KRas G12D mutant: % inh.” value was “C (C = 46-75% inhibition)”. Further, in the test with KRas G12C mutant, the “KRas G12C mutant + SOS: % inh.” value was “D (D = 76-100% inhibition)” and the “KRas G12C mutant: % inh.” value is given as “B (B = 26-45% inhibition)”.
